Measurements published in US9850283B2, “Macrocyclic inhibitors of the PD-1/PD-L1 and CD80(B7-1)/PD-L1 protein/protein interactions” (BRISTOL-MYERS SQUIBB COMPANY, priority 2013, dated 2017).
Read-outs that look alike come from different tables or passages of the source. Positions of bridges follow the written chain, without caps; N, C: chain ends. Non-standard residues stand in square brackets, D forms with d. Residues, ends and D or L forms follow the SMILES beside them. ξ: configuration not given here. Phe(4-tBu) = CC(C)(C)c1ccc(C[C@H](N)C(=O)O)cc1; Bta = N[C@@H](Cc1csc2ccccc12)C(=O)O; Ala(cPr) = N[C@@H](CC1CC1)C(=O)O; Hyp = O=C(O)[C@@H]1C[C@@H](O)CN1; NMeNle = CCCC[C@H](NC)C(=O)O; ξY = NC(Cc1ccc(O)cc1)C(=O)O; NMeA = CN[C@@H](C)C(=O)O; Orn = NCCC[C@H](N)C(=O)O; Dap = NC[C@H](N)C(=O)O; ξP = O=C(O)C1CCCN1; ξC = NC(CS)C(=O)O; Sar = CNCC(=O)O

How the values were obtained:
[1] = molecular target: T1, LK35.2-hPD-L1 cells / PE-labeled PD-1-Ig (Homo sapiens, UniProt Q9NZQ7); experiment: LK35.2-hPD-L1 cell binding high-content screening assay; type: cell-based
T1 construct: expressed in transfected cells; host or cells: LK35.2 mouse B cell line
Procedure, shortened: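 Readout: high-content imaging of PE-PD-1-Ig bound to LK35.2-hPD-L1 cells. Cells plated overnight (RPMI/10% FCS); compound + 1 nM PE-PD-1-Ig, 1 h, 37 °C; 3× dPBS wash before imaging.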

Human PD-L1/PD-1 = molecular target: T2, Human PD-L1/PD-1 (Homo sapiens, UniProt Q9NZQ7); experiment: HTRF PD-1-Ig/PD-L1-His binding assay (human PD-L1)
T2 construct: made in house; host or cells: HEK293T
Procedure, shortened: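 HTRF read-out: Eu cryptate anti-Ig mAb 1 nM final, APC anti-His mAb 20 nM final, added over the binding reaction. Proteins were PD-1-Ig and PD-L1-His ectodomain fusions. Buffer was dPBS, 0.1% BSA, 0.05% Tween-20.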

[2] = cell binding assay, cell line not given, cluster symbol, read-out: CBA IC50 cluster
[3] = cluster symbol, read-out: HTRF IC50 cluster
[4] = cluster symbol, cell line of CBA not given (LK35.2-hPD-L1 or 293T-hPD-L1), read-out: CBA IC50 cluster

T2 sequence (Q9NZQ7 with tags, fused parts or gaps): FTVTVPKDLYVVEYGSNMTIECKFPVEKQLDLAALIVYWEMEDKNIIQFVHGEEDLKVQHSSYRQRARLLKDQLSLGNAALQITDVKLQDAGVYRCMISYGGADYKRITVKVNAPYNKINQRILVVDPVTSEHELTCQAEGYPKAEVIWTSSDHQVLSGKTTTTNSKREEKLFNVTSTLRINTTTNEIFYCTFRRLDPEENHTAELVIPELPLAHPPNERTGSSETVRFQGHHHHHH
T1 sequence (Q9NZQ7 19-290): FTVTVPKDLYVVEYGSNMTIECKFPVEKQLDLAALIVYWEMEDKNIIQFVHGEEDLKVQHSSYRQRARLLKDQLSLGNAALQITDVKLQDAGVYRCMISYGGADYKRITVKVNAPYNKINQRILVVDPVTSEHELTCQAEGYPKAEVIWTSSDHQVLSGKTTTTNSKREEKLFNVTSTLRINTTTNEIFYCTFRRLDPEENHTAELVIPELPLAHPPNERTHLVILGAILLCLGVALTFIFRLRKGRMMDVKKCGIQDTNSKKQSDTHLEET

| Compound | IC50 [1, 2] | IC50 (Human PD-L1/PD-1; [3]) | other results |
| --- | --- | --- | --- |
| CCCC[C@H]1C(=O)N(C)[C@@H](CCCC)C(=O)N[C@@H](CC2CC2)C(=O)N[C@H](C(=O)NCC(N)=O)CSCC(=O)N[C@@H](Cc2ccc(O)cc2)C(=O)N(C)[C@@H](C)C(=O)N[C@@H](CC(N)=O)C(=O)N2CCC[C@H]2C(=O)N[C@@H](Cc2c[nH]cn2)C(=O)N[C@@H](CCC(N)=O)C(=O)N2C[C@H](O)C[C@H]2C(=O)N[C@@H](Cc2c[nH]c3ccccc23)C(=O)N[C@@H](CO)C(=O)N[C@@H](Cc2c[nH]c3ccccc23)C(=O)N1C [Example 5081] ({CH2CO}-Y[NMeA]NPHQ[Hyp]WSW[NMeNle][NMeNle][Ala(cPr)]CG-NH2; thioether N-14) | 4.78 to 72.9 nM | 0.385 to 6.74 nM | – |
| CCCC[C@H]1C(=O)N(C)CC(=O)N[C@@H](CC(=O)O)C(=O)N[C@@H](C(C)C)C(=O)N(C)[C@@H](Cc2ccccc2)C(=O)N2C[C@H](O)C[C@H]2C(=O)N2CCC[C@@H]2C(=O)N[C@@H](Cc2c[nH]c3ccccc23)C(=O)N[C@@H](Cc2ccc(O)cc2)C(=O)N[C@@H](CC(C)C)C(=O)N[C@H](C(=O)NCC(N)=O)CSCC(=O)N[C@@H](Cc2ccccc2)C(=O)N(C)[C@@H](Cc2ccccc2)C(=O)N1C [Example 3177] (HELM PEPTIDE1{[O=C(C[*:3])[*:2]].F.[meF].[CCCC[C@@H](C(=O)[*:2])N(C)[*:1]].[Sar].D.V.[meF].[Hyp].[dP].W.Y.L.C.G.[am]}$PEPTIDE1,PEPTIDE1,1:R3-14:R3$$$V2.0) | – | > 30.5 nM | IC50 [1, 4]: > 74.3 nM |
| CCCC[C@H]1C(=O)N(C)CC(=O)N[C@@H](CC(=O)O)C(=O)N[C@@H](Cc2ccccc2)C(=O)N(C)[C@@H](Cc2ccccc2)C(=O)N[C@@H](Cc2ccc(O)cc2)C(=O)N(C)CC(=O)N[C@@H](Cc2c[nH]c3ccccc23)C(=O)N[C@@H](Cc2ccc(O)cc2)C(=O)N[C@@H](CC(C)C)C(=O)N[C@H](C(=O)NCC(N)=O)CSCC(=O)N[C@@H](Cc2ccccc2)C(=O)N(C)[C@@H](Cc2ccccc2)C(=O)N1C [Example 3543] (HELM PEPTIDE1{[O=C(C[*:3])[*:2]].F.[meF].[CCCC[C@@H](C(=O)[*:2])N(C)[*:1]].[Sar].D.F.[meF].Y.[Sar].W.Y.L.C.G.[am]}$PEPTIDE1,PEPTIDE1,1:R3-14:R3$$$V2.0) | > 74.3 nM | > 30.5 nM | – |
| CCCCC1C(=O)N[C@@H](CCC(=O)O)C(=O)N[C@@H](CC(=O)O)C(=O)N[C@@H](C(C)C)C(=O)N(C)[C@@H](Cc2ccccc2)C(=O)N[C@@H](Cc2ccc(O)cc2)C(=O)N(C)CC(=O)N[C@@H](Cc2c[nH]c3ccccc23)C(=O)N[C@@H](Cc2ccc(O)cc2)C(=O)N[C@@H](CC(C)C)C(=O)N[C@H](C(=O)NCC(N)=O)CSCC(=O)N[C@@H](Cc2ccccc2)C(=O)N(C)[C@@H](Cc2ccccc2)C(=O)N1C (some centres unmarked) [Example 3500] (HELM PEPTIDE1{[O=C(C[*:3])[*:2]].F.[meF].[CCCCC(C(=O)[*:2])N(C)[*:1]].E.D.V.[meF].Y.[Sar].W.Y.L.C.G.[am]}$PEPTIDE1,PEPTIDE1,1:R3-14:R3$$$V2.0) | > 74.3 nM | > 30.5 nM | – |
| CCCC[C@H]1C(=O)N(C)[C@@H](CCCC)C(=O)N[C@@H](CN)C(=O)N[C@H](C(=O)NCC(N)=O)CSCC(=O)N[C@@H](Cc2ccc(O)cc2)C(=O)N(C)[C@@H](C)C(=O)N[C@@H](CC(=O)O)C(=O)N2CCC[C@H]2C(=O)N[C@@H](Cc2c[nH]cn2)C(=O)N[C@@H](CCC(N)=O)C(=O)N2C[C@H](O)C[C@H]2C(=O)N[C@@H](Cc2c[nH]c3ccccc23)C(=O)N[C@@H](CO)C(=O)N[C@@H](Cc2c[nH]c3ccccc23)C(=O)N1C [Example 5101] ({CH2CO}-Y[NMeA]DPHQ[Hyp]WSW[NMeNle][NMeNle][Dap]CG-NH2; thioether N-14) | 0.158 to 4.71 nM | 0.385 to 6.74 nM | – |
| CCCC[C@H]1C(=O)N(C)[C@@H](CCCC)C(=O)N[C@@H](CCCNC(=N)N)C(=O)NC(C(=O)NCC(N)=O)CSCC(=O)N[C@@H](Cc2ccc(O)cc2)C(=O)N(C)[C@@H](C)C(=O)N[C@@H](CC(N)=O)C(=O)N2C[C@H](O)C[C@H]2C(=O)N[C@@H](Cc2cnc[nH]2)C(=O)N[C@@H](CC(C)C)C(=O)N2C[C@H](O)C[C@H]2C(=O)N[C@@H](Cc2c[nH]c3ccccc23)C(=O)N[C@@H](CO)C(=O)N[C@@H](Cc2c[nH]c3ccccc23)C(=O)N1C (some centres unmarked) [Example 9013] ({CH2CO}-Y[NMeA]N[Hyp]HL[Hyp]WSW[NMeNle][NMeNle]R[ξC]G-NH2; thioether N-14) | – | – | IC50 ([1]; cell binding assay, cell line not given, numeric value, read-out: CBA IC50 values): 5.97 nM; IC50 (Human PD-L1/PD-1; numeric value, read-out: HTRF IC50 values): 8.11 nM |
| CCCC[C@H]1C(=O)N(C)[C@@H](CCCC)C(=O)N[C@@H](CCCNC(=N)N)C(=O)N[C@H](C(=O)NCC(N)=O)CSCC(=O)N[C@@H](Cc2ccc(C(C)(C)C)cc2)C(=O)N(C)[C@@H](C)C(=O)N[C@@H](CC(N)=O)C(=O)N2CCC[C@H]2C(=O)N[C@@H](CN)C(=O)N[C@@H](CC(C)C)C(=O)N2C[C@H](O)C[C@H]2C(=O)N[C@@H](Cc2c[nH]c3ccccc23)C(=O)N[C@@H](CO)C(=O)N[C@@H](Cc2c[nH]c3ccccc23)C(=O)N1C [Example 7036] ({CH2CO}-[Phe(4-tBu)][NMeA]NP[Dap]L[Hyp]WSW[NMeNle][NMeNle]RCG-NH2; thioether N-14) | > 74.3 nM | 6.76 to 30.3 nM | – |
| CCCC[C@H]1C(=O)N(C)CC(=O)N[C@@H](Cc2ccc(O)cc2)C(=O)N[C@@H](C(C)C)C(=O)N(C)[C@@H](Cc2ccccc2)C(=O)N[C@@H](Cc2ccc(O)cc2)C(=O)N(C)CC(=O)N[C@@H](Cc2c[nH]c3ccccc23)C(=O)N[C@@H](Cc2ccc(O)cc2)C(=O)N[C@@H](CC(C)C)C(=O)N[C@H](C(=O)NCC(N)=O)CSCC(=O)N[C@@H](Cc2ccccc2)C(=O)N(C)[C@@H](Cc2ccccc2)C(=O)N1C [Example 3154] (HELM PEPTIDE1{[O=C(C[*:3])[*:2]].F.[meF].[CCCC[C@@H](C(=O)[*:2])N(C)[*:1]].[Sar].Y.V.[meF].Y.[Sar].W.Y.L.C.G.[am]}$PEPTIDE1,PEPTIDE1,1:R3-14:R3$$$V2.0) | – | – | IC50 ([1]; cell line of CBA not given (LK35.2-hPD-L1 or 293T-hPD-L1), read-out: CBA IC50 value): 18.4 nM; IC50 (Human PD-L1/PD-1; read-out: HTRF IC50 value): 230 nM |
| CCCC[C@H]1C(=O)N(C)[C@@H](CCCC)C(=O)N[C@@H](CCCNC(=N)N)C(=O)N[C@H](C(=O)NCC(N)=O)CSCC(=O)NC(Cc2ccc(O)cc2)C(=O)N(C)[C@@H](C)C(=O)N[C@@H](CC(N)=O)C(=O)N2CCCC2C(=O)N[C@@H](CN)C(=O)N[C@@H](CCC(=O)O)C(=O)N2CCC[C@H]2C(=O)N[C@@H](Cc2c[nH]c3ccccc23)C(=O)N[C@@H](CO)C(=O)N[C@@H](Cc2c[nH]c3ccccc23)C(=O)N1C (some centres unmarked) [Example 1091] ({CH2CO}-[ξY][NMeA]N[ξP][Dap]EPWSW[NMeNle][NMeNle]RCG-NH2; thioether N-14) | – | 0.385 to 6.74 nM | IC50 [1, 4]: 0.158 to 4.71 nM |
| CCCC[C@H]1C(=O)N(C)[C@@H](CCCC)C(=O)N[C@@H](CCCNC(=N)N)C(=O)NC(C(=O)NCC(N)=O)CSCC(=O)N[C@@H](Cc2ccc(O)cc2)C(=O)N(C)[C@@H](C)C(=O)N[C@@H](CC(N)=O)C(=O)N2CCC[C@H]2C(=O)N[C@@H](Cc2c[nH]cn2)C(=O)N[C@@H](C)C(=O)N[C@@H](CC(C)C)C(=O)N2CCC[C@H]2C(=O)N[C@@H](Cc2c[nH]c3ccccc23)C(=O)N[C@@H](CO)C(=O)N[C@@H](Cc2c[nH]c3ccccc23)C(=O)N1C (some centres unmarked) [Example 10517] ({CH2CO}-Y[NMeA]NPHALPWSW[NMeNle][NMeNle]R[ξC]G-NH2; thioether N-15) | > 74.3 nM | > 30.5 nM | – |
| CCCC[C@H]1C(=O)N(C)[C@@H](CCCC)C(=O)N[C@@H](C)C(=O)N[C@H](C(=O)NCC(N)=O)CSCC(=O)N[C@@H](Cc2ccc(O)cc2)C(=O)N(C)[C@@H](C)C(=O)N[C@@H](CCC(=O)O)C(=O)N2CCC[C@H]2C(=O)N[C@@H](Cc2cnc[nH]2)C(=O)N[C@@H](CC(C)C)C(=O)N2CCC[C@H]2C(=O)N[C@@H](Cc2c[nH]c3ccccc23)C(=O)N[C@@H](CO)C(=O)N[C@@H](Cc2c[nH]c3ccccc23)C(=O)N1C [Example 1164] ({CH2CO}-Y[NMeA]EPHLPWSW[NMeNle][NMeNle]ACG-NH2; thioether N-14) | – | 6.76 to 30.3 nM | IC50 [1, 4]: 4.78 to 72.9 nM |
| CCCC[C@H]1C(=O)N2CCC[C@@H]2C(=O)N[C@@H](CCCN)C(=O)N[C@H](C(=O)NCC(N)=O)CSCC(=O)N[C@@H](Cc2ccc(O)cc2)C(=O)N(C)[C@@H](C)C(=O)N[C@@H](CC(N)=O)C(=O)N2CCC[C@H]2C(=O)N[C@@H](Cc2cnc[nH]2)C(=O)N[C@@H](CC(C)C)C(=O)N2CCC[C@H]2C(=O)N[C@@H](Cc2c[nH]c3ccccc23)C(=O)N[C@@H](CO)C(=O)N[C@@H](Cc2csc3ccccc23)C(=O)N1C [Example 5010] ({CH2CO}-Y[NMeA]NPHLPWS[Bta][NMeNle][dP][Orn]CG-NH2; thioether N-14) | 4.78 to 72.9 nM | 6.76 to 30.3 nM | – |
| CCCC[C@H]1C(=O)N(C)[C@@H](CCCC)C(=O)N[C@@H](Cc2cnc[nH]2)C(=O)N[C@H](C(=O)NCC(N)=O)CSCC(=O)N[C@@H](Cc2ccccc2)C(=O)N(C)[C@@H](C)C(=O)N[C@@H](CC(N)=O)C(=O)N2CCC[C@H]2C(=O)N[C@@H](Cc2cnc[nH]2)C(=O)N[C@@H](CC(C)C)C(=O)N(C)CC(=O)N[C@@H](Cc2c[nH]c3ccccc23)C(=O)N[C@@H](CO)C(=O)N[C@@H](Cc2c[nH]c3ccccc23)C(=O)N1C [Example 5013] ({CH2CO}-F[NMeA]NPHL[Sar]WSW[NMeNle][NMeNle]HCG-NH2; thioether N-14) | > 74.3 nM | > 30.5 nM | – |
